Data on 1 compound can be found in patent publication US12285434B2, “Therapeutic, preventive, or improvement agent for inflammatory disease and allergic disease” (The University of Tokyo, priority 2018, dated 2025).

Structures are written as SMILES.

For assay [1], the system named is calcium ion concentration in HUVECs. Nature of the assay: Histamine-induced increase of calcium ion concentration (fura-2). The format is cell-based, human. The note with it: histamine 10 μM, no pretreatment. As to the method:
These cells (passages 4 to 9) were used for experiments after 4-hour starvation in EBM-2 (manufactured by Lonza K.K.) containing 2% FBS.
HUVECs were incubated with a calcium fluorescence indicator (3 μg fura-2/AM containing 0.11% Cremophor EL) for 30 minutes and washed with an HEPES buffer three times. […] Then, 5 minutes after the addition of each reagent, histamine was added so as to attain 10 μM. In addition, a group to which histamine was added so as to attain 10 μM without pretreatment was also prepared. A cover slip was placed in a specialized airtight chamber mounted onto the stage of a microscope maintained at 37° C. The HUVECs were excited at 340 nm and 380 nm and the emitted fluorescence signal was measured every 3 seconds at 510 nm for 60 seconds. The fluorescence ratio (R:F340/F380) was determined using a fluorescence imaging system (AQUACOSMOS, manufactured by Hamamatsu Photonics K.K.). After the experiment, 1 μM ionomycin was added and the fluorescence changes were measured in the presence of 0 or 1.5 mM calcium ions. The calcium ion concentration was indicated as A fluorescence ratio. AUC was calculated 1 minute after each stimulus to evaluate the A fluorescence ratio. It is known that the increase of calcium ion concentration in endothelial cells promotes NO production by eNOS phosphorylation and […] smooth muscle cells (Garcia-Cardena, G. et al., Nature, 392: 821-824(1998); and Luo, Z. et al., The Journal of clinical investigation, 106: 493-499(2000)).

The test system of the next assay is NO production in HUVECs. Briefly: Histamine-induced NO production (nitrite and nitrate). The format is cell-based, human. Conditions: histamine 10 μM, no pretreatment. As to the method:
(§1) In Examples 4 to 6, human umbilical vein endothelial cells (hereinafter, sometimes referred to as “HUVECs”, manufactured by Lonza) were cultured in EGM-2 (manufactured by Lonza K.K.). These cells (passages 4 to 9) were used for experiments after 4-hour starvation in EBM-2 (manufactured by Lonza K.K.) containing 2% FBS.
The HUVECs were washed three times with HEPES and incubated in HEPES supplemented with 1 mM L-arginine and 10 μM tetrahydrobiopterin. After equilibration for 30 minutes, the medium was exchanged, and the cells were incubated for additional 30 minutes. […] The conditioned media before and after the stimulation (100 μL each) were collected and centrifuged in each amount of 300 g for 3 minutes. The supernatants were collected, and used to measure nitrite and nitrate, as stable metabolites of NO, by an ENO-20 NOx analyzer (manufactured by Eicom Corporation). The degrees of increases of nitrite and nitrate levels after the stimulation were normalized with cellular protein contents.

A further assay concerns ear vessels of the mice. Briefly: In vivo microscopy of ear vessels: FITC-dextran leakage and vascular diameter after histamine. Also noted: species or system mouse. Conditions: histamine 400 μg by instillation, no pretreatment. The protocol: To visualize the ear vessels of the mice, 70 kDa fluorescein isothiocyanate-dextran (10 mg/kg, manufactured by Sigma-Aldrich) was injected intravenously. Then, immediately after the administration of fluorescein isothiocyanate-dextran, 5,6-DiHETE (0.1 μg) was administered by instillation (percutaneously administered) as a pretreatment, and this group of mice was designated as a “5,6-DiHETE-administered group.” As a control group, a group of mice not administered with 5,6-DiHETE was designated as a “[…]-administered group”. Then, 15 minutes after the administration by instillation, histamine (400 μg) was administered by instillation (percutaneously administered) into the ventral surface of the ears for both the groups. Next, the mice were placed on the stage of a microscope confocal microscope (ECLIPSE Ti with C1 confocal system, manufactured by Nikon Corporation), and their body temperatures were maintained at 37° C. Dextran leakage and vascular diameter in the ears were monitored every minute in a period from 0 to 30 minutes after the administration of histamine using EZ-C1 Free Viewer (manufactured by Nikon Corporation), and the dextran leakage, artery diameter and vein diameter were quantified according to the description of Omori, K. et al., British Journal of Pharmacology, 171:4879-4889 (2014). It is known that smooth muscle contraction reduces the downstream blood flow and limits the vascular leakage, whereas smooth muscle relaxation (increase of vascular diameter) increases the blood flow, thereby leading to vascular leakage.

A further assay relates to anaphylaxis model mice. Briefly: Histamine-induced anaphylaxis: blood pressure and body temperature. The format is in vivo, mouse (C57BL/6). Conditions: 30 minutes after histamine 50 mg/kg intravenously, no pretreatment. The protocol:
Histamine (50 mg/kg) lysed in a physiological saline solution was intravenously administered to C57BL/6 strain mice (male, 8 to 12 weeks old) to prepare anaphylaxis model mice (hereinafter, sometimes referred to as “anaphylaxis group”). […] L-NAME is an NO synthesis inhibitor. As indices of anaphylactic symptoms, a body temperature decrease and a blood pressure decrease were observed.

The test system of assay [2] is histamine-induced vascular permeability in mouse ears. Briefly: Modified Miles assay: histamine-induced vascular hyperpermeability (Evans blue extravasation). The note with it: 400 μg histamine, no pretreatment. The format is in vivo, mouse (C57BL/6). The protocol: Fifteen (15) minutes after the intracutaneous injection, a vehicle (80% acetone) or histamine (400 μg, manufactured by Molecular Probes) was percutaneously administered to the ventral surface of the ears. To evaluate vascular permeability, Evans blue (50 mg/kg, manufactured by Sigma) was injected intravenously 5 minutes after the administration of histamine. The mice were then euthanized by cervical dislocation 30 minutes after the injection of Evans blue. The ears were dissected, dried at 55° C., and weighed. Extravasated Evans blue present in the ears was extracted in formamide (manufactured by Molecular Probes), and quantified spectrophotometrically (manufactured by PerkinElmer Japan Co., Ltd.) at a wavelength of 610 nm.

In a further assay the test system is HUVECs. Nature of the assay: Endothelial barrier function: transendothelial electrical resistance (TER). The format is cell-based, human. The note with it: histamine 10 μM, no pretreatment. As to the method: as §1
The in vitro endothelial barrier function was evaluated by measuring the transendothelial electrical resistance (hereinafter, sometimes referred to as “TER”) of the HUVECs prepared in the above item (1) over time. Specifically, the transendothelial electrical resistance was measured using an xCELLigence Real-Time Cell Analyzer DP system (manufactured by Roche). The system monitors changes in TER across an interdigitated microelectrode at the bottom of tissue culture E-plates (manufactured by Roche). The HUVECs (8,000 cells) were plated on the E-plates and incubated until confluent. Then, the following operation (a) or (b) was performed.
(a) Each reagent was added to plates on which the HUVECs were cultured, so as to give a vehicle, 1 U/mL thrombin, 1 μM forskolin, or 0.1 μM or 0.3 μM 5,6-DiHETE (FIGS. 4A and 4B).
(b) A vehicle or […] was added to plates on which the HUVECs were cultured, so as to attain 10 μM. […] Thirty (30) minutes after the addition, 10 μM histamine was added to each plate 30 minutes after the addition (FIGS. 4C and 4D).
In the above operations (a) and (b), the TER was measured every 60 seconds. For normalization, the cell index value at each time point is shown as a ratio relative to the initial value. The maximum normalized cell index after stimulation was quantified and represented as maximal response. Note that it is known that the disruption of the endothelial barrier function lowers the TER, but that the enhancement of the endothelial barrier function increases the TER.

For `NCCc1c[nH]cn1` [histamine, reference compound], the “calcium ion concentration, AUC at 1 minute after stimulation” value in assay [1] is given as 12.2±2.1. Moreover, the NO production in the assay on NO production in HUVECs is on record as 0.31±0.06 pmol/μg protein. In addition, the “artery diameter as compared with arteries nonstimulated with histamine” value in the assay with ear vessels of the mice is recorded as 178±13%. Also, the body temperature decrease in the assay on anaphylaxis model mice was −2.2±0.3 °C. Moreover, the “blue dye extravasation (Evans blue) in ear” value in assay [2] came out at 0.14 ± 0.02 µg/mg. The “TER, minimum (normalized cell index)” value in the assay with HUVECs is given as 0.82±0.05 fold.
